Data taken from patent US12552755B2, “Cinnamic amide derivative having FXR activating effect, pharmaceutical composition containing the same as active ingredient, and method for preparing the same” (KYUNGSUNG UNIVERSITY INDUSTRY COOPERATION FOUNDATION, priority 2019, dated 2026).

What follows are compounds tested against T1, farnesol X receptor (FXR) (Homo sapiens, UniProt Q96RI1) (assay: Farnesol X receptor (FXR) reporter gene assay (dual luciferase) in HepG2 cells). Conditions: dose 10 uM; HepG2 cells, drug treatment 24 hours; firefly/renilla luciferase ratio, Con = 1.00.
T1 construct: endogenous in cells; host or cells: HepG2
T1 sequence (Q96RI1 1-486): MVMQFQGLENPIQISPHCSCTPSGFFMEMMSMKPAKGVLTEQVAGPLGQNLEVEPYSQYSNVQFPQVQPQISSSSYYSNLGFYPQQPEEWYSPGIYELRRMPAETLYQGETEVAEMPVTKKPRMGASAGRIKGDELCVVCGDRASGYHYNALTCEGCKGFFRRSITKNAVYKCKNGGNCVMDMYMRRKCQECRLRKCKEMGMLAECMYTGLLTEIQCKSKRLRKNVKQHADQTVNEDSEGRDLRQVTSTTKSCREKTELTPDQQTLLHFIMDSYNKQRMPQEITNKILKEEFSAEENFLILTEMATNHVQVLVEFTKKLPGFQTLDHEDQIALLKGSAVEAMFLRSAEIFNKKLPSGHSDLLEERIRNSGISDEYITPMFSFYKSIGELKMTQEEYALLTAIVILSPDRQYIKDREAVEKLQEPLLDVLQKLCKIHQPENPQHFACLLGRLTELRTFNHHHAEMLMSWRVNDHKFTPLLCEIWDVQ
Format: cell-based
Experimental: HepG2 cells were purchased from ATCC (Manassas, VA, USA) and cultured in Dulbecco's modified Eagle's medium (DMEM; Hyclone) containing 10% fetal bovine serum (FBS, Hyclone, Logan, UT, USA), 50 units/mL penicillin (Hyclone) and 50 μg/mL streptomycin (Hyclone). All cells were cultured to have a confluency of about 80% to 90% under the conditions of 37° C. and 5% Co2.
In order to measure FXR transcription factor activity, HepG2 cells (1×10^5 cells/well) were cultured in a 48-well cell culture plate (SPL Life Science Co., Gyeonggido, Korea) for 20 hours and then transduced using Lipofectamin L3000 (Invitrogen, San Diego, CA, USA). Luciferase is an enzyme that catalyzes light-emitting reactions. A plasmid in which the firefly luciferase gene was fused to farnesol X receptor (FXR) and a plasmid in which the renilla luciferase gene was fused to thymidine kinase (TK) were used for transduction. Reacted were 25 μL of serum and antibiotic-free Opti-MEM® (Life Technologies, Grand Island, NY) and 0.5 μL of Lipofectamin L3000 per 0.5 μg of FXR-firefly luciferase plasmid and 10 ng of TK-renilla luciferase plasmid, and the cells were reacted with the reaction mixture for 24 hours. Thereafter, DMEM medium containing 0.1% serum was treated with a drug for 24 hours. After the reaction was completed, the drug-treated culture medium was discarded, and lysis buffer was added at 0.4 ml/well to remove the cells, then the cells were dispensed into a 96-well white plate (SPL Life Science Co.), and the luminescence level was measured using the Dual-glo Luciferase Assay System (Promega, Madison, WI, USA). For the firefly luciferase activity (to see the level of FXR expression) and renilla luciferase activity (to provide a reference value by showing constant expression), the luminescence level was measured using the GloMax Multi Detection System (Promega) and then the relative ratio (firefly luciferase activity/renilla luciferase activity) was calculated.

Question: O=C(O)CNC(=O)/C=C/c1ccc(OCc2ccc([N+](=O)[O-])cc2)cc1 [KS-018, (E)-(3-(4-((4-nitrobenzyl)oxy)phenyl)acryloyl)glycine] was tested. Which fold induction at 10 µM did it give?
Answer: 1.28

Question: For O=C(O)CNC(=O)/C=C/c1ccc(OCc2ccccc2)cc1 [KS-014, (E)-(3-(4-(benzyloxy)phenyl)acryloyl)glycine], which fold induction at 10 µM is on record?
Answer: 1.42

Question: COC(=O)CCNC(=O)/C=C/c1ccc(OCc2c(-c3c(Cl)cccc3Cl)noc2C)cc1 [KS-044, methyl (E)-3-(3-(4-((3-(2,6-dichlorophenyl)-5-methylisoxazol-4-yl)methoxy)phenyl)acrylamido)propanoate] was tested. Which fold induction at 10 µM did it give?
Answer: 2.21

Question: CCOC(=O)CNC(=O)/C=C/c1ccc(OCc2c(-c3ccccc3)noc2C)cc1 [KS-012, ethyl (E)-(3-(4-((5-methyl-3-phenylisoxazol-4-yl)methoxy)phenyl)acryloyl)glycinate] was tested. Which fold induction at 10 µM did it give?
Answer: 1.61

Question: O=C(O)CNC(=O)/C=C/c1ccc(OCc2ccc(F)cc2)cc1 [KS-017, (E)-(3-(4-((4-fluorobenzyl)oxy)phenyl)acryloyl)glycine] was tested. Which fold induction at 10 µM did it give?
Answer: 1.14

Question: With Cc1onc(-c2c(Cl)cccc2Cl)c1COc1ccc(/C=C/C(=O)N[C@H](C)C(=O)O)cc1 [KS-053, (E)-(3-(4-((3-(2,6-dichlorophenyl)-5-methylisoxazol-4-yl)methoxy)phenyl)acryloyl)-D-alanine] as the compound, how does the fold induction at 10 µM read?
Answer: 1.28

Question: Cc1onc(-c2ccccc2)c1COc1ccc(/C=C/C(=O)N[C@H](C(=O)O)C(C)C)cc1 [KS-036, (E)-(3-(4-((5-methyl-3-phenylisoxazol-4-yl)methoxy)phenyl)acryloyl)-L-valine] was tested. Which fold induction at 10 µM did it give?
Answer: 1.24

Question: Which fold induction at 10 µM does the source give for O=C(O)CNC(=O)/C=C/c1ccc(OCc2cc(F)c(F)cc2F)cc1 [KS-021, (E)-(3-(4-((2,4,5-trifluorobenzyl)oxy)phenyl)acryloyl)glycine] here?
Answer: 2.01

Question: For CCOC(=O)CNC(=O)/C=C/c1ccc(OCc2c(-c3c(Cl)cccc3Cl)noc2C)cc1 [KS-011, ethyl (E)-(3-(4-((3-(2,6-dichlorophenyl)-5-methylisoxazol-4-yl)methoxy)phenyl)acryloyl)glycinate], which fold induction at 10 µM is on record?
Answer: 1.65
